Assays:
[1] = test system: rats anesthetized with pentobarbital sodium; assay: Effects on blood pressure, heart rate, cardiac contraction and dilation in rats anesthetized with pentobarbital sodium; type: in vivo, Wistar rats; design: unit not given here; conditions: change after injection through femoral vein, '+' = increase, all others = decrease; for MBP: mean blood pressure: n = 3~5, doses mg/kg: 2, 8, 12: 10, 3-7, 9-11, 40-44: 5; for DBP: diastolic blood pressure / HR: heart rate / LVSP: left ventricular systolic pressure / SBP: systolic blood pressure / Vpm: the physiological velocity of contractile element shorting / −dp/dtmax: the maximal rate of the decrease of left ventricular pressure: mean, n = 3~5, doses mg/kg: 2, 8, 12: 10, 3-7, 9-11, 40-44: 5
Procedure: Biological activity experiment 1. The effects of 16 compounds represented by formula I on blood pressure, heart rate, cardiac contraction and dilation in rats anesthetized with pentobarbital sodium.
The methods of biological activity experiment 1 were as follows: Male Wistar rats, weighing 280±30 g were purchased from the experimental animal center of Academy of Military Medical Sciences. Rats were anesthetized with pentobarbital sodium (45 mg/kg) by peritoneal injection. A PE50 polyethylene catheter was inserted into the left ventricle through right carotid artery for cardiac function measurement with a pressure energe exchanger, wherein the signal is put into a SMUP-PC biosignal processing system. Cardiac functional parameters such as HR, LVSP, +dp/dtmax, −dp/dtmax and Vpm were recorded. Another two PE50 polyethylene catheters were inserted into the right femoral artery and vein respectively for blood pressure measurement wherein the artery cathether was linked to a four-channel physiology recorder (RM-6000) through a MPU-0.5A Type pressure energe exchanger, which recorded SBP, DBP and MBP, while the vein catheter was used for compound administration. The methods were described by Liu Wei et al: Liu Wei, Wang Hai, Xiao Wen-Bin. […] Bull Acad Mil Med Sci 1996;20(4):245˜248.

[2] = test system: spontaneously hypertensive rats; assay: Acute antihypertensive effects in conscious spontaneously hypertensive rats; type: in vivo; conditions: po mg/kg: compound 1 3, pinacidil 3, nifedipine 10, bisoprolol 60, captopril 40, means ± SD, 9-13 rats; for heart rates at 1 h / heart rates at 3 h / heart rates at 5 h / heart rates at 9 h / heart rates at 12 h / heart rates at 24 h / heart rates base value: in bpm (unit assumed); for SBP base value / heart rates base value: base value before administration
Source text: Biological activity experiment 2. The acute antihypertensive effects of compound 1 in conscious spontaneously hypertensive rats.
The methods of biological activity experiment 2 were described by Long Chao-Liang et al: Long Chao-Liang, Wang Hai, Xiao Wen-Bin. Effects of pinacidil on, hypertensive vascular remodeling. Chin J Pharmacol Toxicol 1997; 11(1):42-46.

Structure (SMILES)	MBP: mean blood pressure [1]	DBP: diastolic blood pressure [1]	HR: heart rate [1]	LVSP: left ventricular systolic pressure [1]	SBP: systolic blood pressure [1]	Vpm: the physiological velocity of contractile element shorting [1]	−dp/dtmax: the maximal rate of the decrease of left ventricular pressure [1]	also measured
CC[C@H](C)[C@H](N)C(=O)NC(C)(C)C(C)C [compound 41, N-isoleucyl-2,3-dimethyl-2-butylamine]	+1	+1	16	+4	+2	0	+2	–
CC(C)C(C)(C)NC(=O)[C@@H](N)Cc1ccccc1 [compound 43, N-phenylalanyl-2,3-dimethyl-2-butylamine]	+2	+1	+10	+31	+3	+0.13	+10	–
CC(C)C(C)(C)NC(=O)[C@@H](N)Cc1c[nH]c2ccccc12 [compound 40, N-tryptophanyl-2,3-dimethyl-2-butylamine]	+0.7	0	6	+23	+2	+0.1	+6	–
CC(C)NCC(O)COc1ccc(COCCOC(C)C)cc1 (stereo not shown) [bisoprolol]	–	–	–	–	–	–	–	SBP at 1 h after administration [2]: 211 ± 7 mmHg; heart rates at 1 h [2]: 283 ± 17; SBP at 3 h after administration [2]: 240 ± 7 mmHg; heart rates at 3 h [2]: 278 ± 16; SBP at 5 h after administration [2]: 242 ± 4 mmHg; heart rates at 5 h [2]: 335 ± 34; SBP at 9 h after administration [2]: 242 ± 3 mmHg; heart rates at 9 h [2]: 320 ± 36; SBP at 12 h after administration [2]: 243 ± 3 mmHg; heart rates at 12 h [2]: 341 ± 28; SBP at 24 h after administration [2]: 242 ± 6 mmHg; heart rates at 24 h [2]: 360 ± 7; SBP base value [2]: 242 ± 5 mmHg; heart rates base value [2]: 355 ± 17
CCC(C)N (stereo not shown) [compound 12]	24	23	39	112	25	0.58	129	–
CC(C)NC(C)C(C)C (stereo not shown) [compound 7]	34	34	46	184	34	1.08	226	–
C[C@H](CS)C(=O)N1CCC[C@H]1C(=O)O [captopril]	–	–	–	–	–	–	–	SBP at 1 h after administration [2]: 207 ± 9 mmHg; heart rates at 1 h [2]: 380 ± 12; SBP at 3 h after administration [2]: 213 ± 11 mmHg; heart rates at 3 h [2]: 370 ± 24; SBP at 5 h after administration [2]: 233 ± 10 mmHg; heart rates at 5 h [2]: 366 ± 22; SBP at 9 h after administration [2]: 242 ± 4 mmHg; heart rates at 9 h [2]: 355 ± 12; SBP at 12 h after administration [2]: 241 ± 5 mmHg; heart rates at 12 h [2]: 355 ± 29; SBP at 24 h after administration [2]: 243 ± 4 mmHg; heart rates at 24 h [2]: 364 ± 12; SBP base value [2]: 243 ± 4 mmHg; heart rates base value [2]: 350 ± 17
CNC(C)C [compound 8]	26	24	53	121	28	1.45	124	–
CC(C)C[C@H](N)C(=O)NC(C)(C)C(C)C [compound 42, N-leucyl-2,3-dimethyl-2-butylamine]	+2	+2	+1	+10	+2	+0.18	+13	–
CCC(C)(C)NC [compound 11]	13	10	19	+159	18	0.1	+86	–
CCC(C)N (stereo not shown) [compound 10]	4	5	20	21	2	0.25	27	–
